# Results published in patent US10323022B2, “Pyrrolidinyl urea, pyrrolidinyl thiourea and pyrrolidinyl guanidine compounds as TrkA kinase inhibitors” (Array BioPharma Inc., priority 2011, dated 2019).
# Biological target: TrkA (Homo sapiens (Human), UniProt P04629)
# Experiment: TrkA Omnia Assay
# Type: biochemical
# Settings: averaged IC50; 20 nM enzyme, 500 μM ATP, 10 μM peptide substrate
# Outline: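 Continuous fluorescent kinase read-out (ex 360 nm, em 485 nm) over 70 min, with initial rates fitted to 4- or 5-parameter logistic curves for IC50. Final conditions: 500 μM ATP, 10 μM Omnia Tyr Peptide #4, 20 nM TrkA, MOPS pH 7.5 buffer with MgCl2 and Triton X-100; enzyme and compound preincubated 10 min at ambient temperature.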
# Sequence of TrkA (P04629 33-796): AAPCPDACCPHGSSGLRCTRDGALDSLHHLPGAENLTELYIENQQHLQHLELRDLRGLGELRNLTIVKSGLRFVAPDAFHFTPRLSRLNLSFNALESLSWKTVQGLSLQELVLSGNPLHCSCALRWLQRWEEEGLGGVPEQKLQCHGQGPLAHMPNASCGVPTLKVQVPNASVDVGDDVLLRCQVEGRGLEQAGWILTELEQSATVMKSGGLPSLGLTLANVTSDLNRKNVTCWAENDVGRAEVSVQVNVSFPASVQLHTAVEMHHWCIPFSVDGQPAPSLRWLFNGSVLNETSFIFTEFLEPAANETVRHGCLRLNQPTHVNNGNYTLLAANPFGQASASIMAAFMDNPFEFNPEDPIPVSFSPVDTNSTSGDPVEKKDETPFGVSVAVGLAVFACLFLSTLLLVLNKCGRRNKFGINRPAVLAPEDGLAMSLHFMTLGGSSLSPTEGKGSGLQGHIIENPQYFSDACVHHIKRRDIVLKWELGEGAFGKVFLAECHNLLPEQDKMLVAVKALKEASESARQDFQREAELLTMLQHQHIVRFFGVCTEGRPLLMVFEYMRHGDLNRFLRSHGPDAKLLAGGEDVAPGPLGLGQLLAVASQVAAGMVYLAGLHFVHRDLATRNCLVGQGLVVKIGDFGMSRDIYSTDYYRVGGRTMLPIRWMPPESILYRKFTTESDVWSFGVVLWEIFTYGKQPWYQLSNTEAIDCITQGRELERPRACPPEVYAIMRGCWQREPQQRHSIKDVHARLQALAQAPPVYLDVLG
row,SMILES,IC50 [nM]
1,"CCOc1nn(-c2ccccc2)c(NC(=O)N[C@@H]2CN(CCC#N)C[C@H]2c2ccc(F)c(F)c2)c1C [Example 471, 1-((3S,4R)-1-(2-cyanoethyl)-4-(3,4-difluorophenyl)pyrrolidin-3-yl)-3-(3-ethoxy-4-methyl-1-phenyl-1H-pyrazol-5-yl)urea]",100 to 1000
2,"CCOc1nn(-c2ccccc2)c(NC(=O)N[C@@H]2CN(CC(=O)NC)C[C@H]2c2ccc(F)c(F)c2)c1C [Example 472, 2-((3R,4S)-3-(3,4-difluorophenyl)-4-(3-(3-ethoxy-4-methyl-1-phenyl-1H-pyrazol-5-yl)ureido)pyrrolidin-1-yl)-N-methylacetamide]",100 to 1000
3,"COCCN1C[C@@H](NC(=O)Nc2c(C)c(C)nn2C2CCCCC2)[C@H](c2ccc(F)c(F)c2)C1 [Example 473, 1-(1-cyclohexyl-3,4-dimethyl-1H-pyrazol-5-yl)-3-((3 S,4R)-4-(3,4-difluorophenyl)-1-(2-methoxyethyl)pyrrolidin-3-yl)urea]",< 100
4,"COCCN1C[C@@H](NC(=O)Nc2c(C)c(OCC(CO)CO)nn2-c2ccccc2)[C@H](c2ccc(F)c(F)c2)C1 [Example 474, 1-((3S,4R)-4-(3,4-difluorophenyl)-1-(2-methoxyethyl)pyrrolidin-3-yl)-3-(3-(3-hydroxy-2-(hydroxymethyl)propoxy)-4-methyl-1-phenyl-1H-pyrazol-5-yl)urea]",< 100
5,"COCCN1C[C@@H](NC(=O)Nc2c(C)c(OCC(F)(F)F)nn2-c2ccccc2)[C@H](c2ccc(F)c(F)c2)C1 [Example 475, 1-((3S,4R)-4-(3,4-difluorophenyl)-1-(2-methoxyethyl)pyrrolidin-3-yl)-3-(4-methyl-1-phenyl-3-(2,2,2-trifluoroethoxy)-1H-pyrazol-5-yl)urea]",< 100
6,"COCCN1C[C@@H](NC(=O)Nc2c(C)c(OCC(F)(F)F)nn2-c2ccccc2)[C@H](c2ccc(F)cc2)C1 [Example 476, 1-((3S,4R)-4-(4-fluorophenyl)-1-(2-methoxyethyl)pyrrolidin-3-yl)-3-(4-methyl-1-phenyl-3-(2,2,2-trifluoroethoxy)-1H-pyrazol-5-yl)urea]",< 100
7,"COCCN1C[C@@H](NC(=O)Nc2c(C)c(OCC(F)(F)F)nn2-c2ccccc2)[C@H](c2cc(F)cc(F)c2)C1 [Example 477, 1-((3S,4R)-4-(3,5-difluorophenyvl)-1-(2-methoxyethyl)pyrrolidin-3-yl)-3-(4-methyl-1-phenyl-3-(2,2,2-trifluoroethoxy)-1H-pyrazol-5-yl)urea]",< 100
8,"COCCN1C[C@@H](NC(=O)Nc2c(C)c(OCC(F)F)nn2-c2ccccc2)[C@H](c2ccc(F)c(F)c2)C1 [Example 478, 1-(3-(2,2-difluoroethoxy)-4-methyl-1-phenyl-1H-pyrazol-5-yl)-3-((3 S,4R)-4-(3,4-difluorophenyl)-1-(2-methoxyethyl)pyrrolidin-3-yl)urea]",< 100
9,"COCCN1C[C@@H](NC(=O)Nc2c(Cl)c(OCC(F)(F)F)nn2-c2ccccc2)[C@H](c2ccc(F)c(F)c2)C1 [Example 479, 1-(4-chloro-1-phenyl-3-(2,2,2-trifluoroethoxy)-1H-pyrazol-5-yl)-3-((3 S,4R)-4-(3,4-difluorophenyl)-1-(2-methoxyethyl)pyrrolidin-3-yl)urea]",< 100
10,"COCCN1C[C@@H](NC(=O)Nc2c(Cl)c(-c3ccccn3)nn2-c2ccccc2)[C@H](c2ccc(F)c(F)c2)C1 [Example 480, 1-(4-chloro-1-phenyl-3-(pyridin-2-yl)-1H-pyrazol-5-yl)-3-((3 S,4R)-4-(3,4-difluorophenyl)-1-(2-methoxyethyl)pyrrolidin-3-yl)urea]",< 100
11,"COCCN1C[C@@H](NC(=O)Nc2c(Cl)c(-c3ccncc3)nn2-c2ccccc2)[C@H](c2ccc(F)c(F)c2)C1 [Example 481, 1-(4-chloro-1-phenyl-3-(pyridin-4-yl)-1H-pyrazol-5-yl)-3-((3 S,4R)-4-(3,4-difluorophenyl)-1-(2-methoxyethyl)pyrrolidin-3-yl)urea]",< 100
12,"COCCN1C[C@@H](NC(=O)Nc2c(Cl)c(-c3cccnc3)nn2-c2ccccc2)[C@H](c2ccc(F)c(F)c2)C1 [Example 482, 1-(4-chloro-1-phenyl-3-(pyridin-3-yl)-1H-pyrazol-5-yl)-3-((3S,4R)-4-(3,4-difluorophenyl)-1-(2-methoxyethyl)pyrrolidin-3-yl)urea]",< 100
13,"COCCN1C[C@@H](NC(=O)Nc2c(Br)c(-c3cccnc3)nn2-c2ccccc2)[C@H](c2ccc(F)c(F)c2)C1 [Example 483, 1-(4-bromo-1-phenyl-3-(pyridin-3-yl)-1H-pyrazol-5-yl)-3-((3 S,4R)-4-(3,4-difluorophenyl)-1-(2-methoxyethyl)pyrrolidin-3-yl)urea]",< 100
14,"COCCN1C[C@@H](NC(=O)Nc2c(Br)c(-c3ccccn3)nn2-c2ccccc2)[C@H](c2ccc(F)c(F)c2)C1 [Example 484, 1-(4-bromo-1-phenyl-3-(pyridin-2-yl)-1H-pyrazol-5-yl)-3-((3S,4R)-4-(3,4-difluorophenyl)-1-(2-methoxyethyl)pyrrolidin-3-yl)urea]",< 100
15,"COCCN1C[C@@H](NC(=O)Nc2c(Cl)c(-c3ccccc3)nn2-c2cccnc2)[C@H](c2ccc(F)c(F)c2)C1 [Example 485, 1-(4-chloro-3-phenyl-1-(pyridin-3-yl)-1H-pyrazol-5-yl)-3-((3S,4R)-4-(3,4-difluorophenyl)-1-(2-methoxyethyl)pyrrolidin-3-yl)urea]",100 to 1000
16,"COCCN1C[C@@H](NC(=O)Nc2c(C)c(-c3cccnc3)nn2-c2ccccc2)[C@H](c2ccc(F)c(F)c2)C1 [Example 486, 1-((3S,4R)-4-(3,4-difluorophenyl)-1-(2-methoxyethyl)pyrrolidin-3-yl)-3-(4-methyl-1-phenyl-3-(pyridin-3-yl)-1H-pyrazol-5-yl)urea]",< 100
17,"COCCN1C[C@@H](NC(=O)Nc2c(C)c(-c3ccncc3)nn2-c2ccccc2)[C@H](c2ccc(F)c(F)c2)C1 [Example 487, 1-((3S,4R)-4-(3,4-difluorophenyl)-1-(2-methoxyethyl)pyrrolidin-3-yl)-3-(4-methyl-1-phenyl-3-(pyridin-4-yl)-1H-pyrazol-5-yl)urea]",< 100
18,"COCCN1C[C@@H](NC(=O)Nc2c(C)c(-c3ccccn3)nn2-c2ccccc2)[C@H](c2ccc(F)c(F)c2)C1 [Example 488, 1-((3S,4R)-4-(3,4-difluorophenyl)-1-(2-methoxyethyl)pyrrolidin-3-yl)-3-(4-methyl-1-phenyl-3-(pyridin-2-yl)-1H-pyrazol-5-yl)urea]",< 100
19,"COCCN1C[C@@H](NC(=O)Nc2c(C)c(-c3cncc(F)c3)nn2-c2ccccc2)[C@H](c2ccc(F)c(F)c2)C1 [Example 489, 1-((3S,4R)-4-(3,4-difluorophenyl)-1-(2-methoxyethyl)pyrrolidin-3-yl)-3-(3-(5-fluoropyridin-3-yl)-4-methyl-1-phenyl-1H-pyrazol-5-yl)urea]",< 100
20,"COCCN1C[C@@H](NC(=O)Nc2c(C)c(-c3cncc(F)c3)nn2-c2cccnc2)[C@H](c2ccc(F)c(F)c2)C1 [Example 490, 1-((3S,4R)-4-(3,4-difluorophenyl)-1-(2-methoxyethyl)pyrrolidin-3-yl)-3-(3-(5-fluoropyridin-3-yl)-4-methyl-1-(pyridin-3-yl)-1H-pyrazol-5-yl)urea]",< 100
